IC50 data for one molecule are collected here from publication PMC5376326, “Inhibition of ANO1 by luteolin and its cytotoxicity in human prostate cancer PC-3 cells” (PLoS ONE, 2017).

Structures are written as SMILES.

In this assay the target is T1, mouse ANO2 (Mus musculus, UniProt Q8CFW1).
T1 construct: expressed in transfected cells; host or cells: Fisher rat thyroid (FRT) cells, stably transfected, co-expressing halide sensor YFP
T1 sequence (Q8CFW1 1-1002): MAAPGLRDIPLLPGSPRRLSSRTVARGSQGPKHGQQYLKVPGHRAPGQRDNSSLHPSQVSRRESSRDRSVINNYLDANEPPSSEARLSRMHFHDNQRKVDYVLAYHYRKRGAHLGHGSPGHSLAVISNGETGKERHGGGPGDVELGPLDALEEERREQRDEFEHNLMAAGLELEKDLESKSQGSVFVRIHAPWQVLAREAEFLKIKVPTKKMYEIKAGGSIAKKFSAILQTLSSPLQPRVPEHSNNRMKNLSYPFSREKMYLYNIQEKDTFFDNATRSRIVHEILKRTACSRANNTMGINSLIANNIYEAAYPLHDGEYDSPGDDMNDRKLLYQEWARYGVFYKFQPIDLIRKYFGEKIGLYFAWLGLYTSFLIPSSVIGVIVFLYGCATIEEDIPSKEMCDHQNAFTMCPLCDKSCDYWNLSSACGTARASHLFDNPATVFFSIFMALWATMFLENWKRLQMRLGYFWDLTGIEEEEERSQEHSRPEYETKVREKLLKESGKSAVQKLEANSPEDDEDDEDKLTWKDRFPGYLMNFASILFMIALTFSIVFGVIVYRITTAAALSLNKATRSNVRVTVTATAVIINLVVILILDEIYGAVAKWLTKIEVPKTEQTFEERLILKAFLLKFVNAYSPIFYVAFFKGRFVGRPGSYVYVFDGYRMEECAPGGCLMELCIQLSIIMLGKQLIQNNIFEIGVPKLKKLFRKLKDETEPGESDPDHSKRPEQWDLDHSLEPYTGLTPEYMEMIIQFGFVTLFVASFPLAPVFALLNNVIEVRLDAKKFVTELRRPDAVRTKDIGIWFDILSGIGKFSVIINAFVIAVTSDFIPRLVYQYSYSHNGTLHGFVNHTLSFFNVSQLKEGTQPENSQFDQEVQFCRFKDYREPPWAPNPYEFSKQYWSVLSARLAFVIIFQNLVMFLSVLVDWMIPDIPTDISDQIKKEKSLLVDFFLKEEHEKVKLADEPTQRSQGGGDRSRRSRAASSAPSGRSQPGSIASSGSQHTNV
In words: YFP quenching assay in FRT cells expressing mouse ANO2. It is filed as cell-based. The note with it: FRT cells expressing mouse ANO2 and YFP; read-out: IC50, ATP-induced activation of ANO2. As for the experimental part: Fisher rat thyroid (FRT) cells were stably transfected with human ANO1 (abc) or mouse ANO2 and the halide sensor YFP as described in previous study. FRT cells were cultured in Coon`s modified F12 medium with 10% FBS, 2 mM L-glutamine, 100 units/ml penicillin and 100 μg/ml streptomycin at 37°C and 5% CO2. PC-3 cells were grown in RPMI 1640 medium supplemented with 10% FBS, 100 units/ml penicillin and 100 μg/ml streptomycin at 37°C and 5% CO2. There were populations of PC-3 cells with high and low expression of ANO1. […]
ANO1 and YFP expressing FRT cells were plated in 96-well black-walled microplates (Corning Inc., Corning, NY) at a density of 20,000 cells per well. Assays were done using FLUOstar Omega microplate reader (BMG Labtech, Ortenberg, Germany) and MARS Data Analysis Software (BMG Labtech) as described in our previous study. […] After 10 minutes incubation at 37°C, 96-well plates were transferred to the plate reader for fluorescence assay. Each well was assayed individually for ANO1-mediated I^- influx by monitoring YFP fluorescence continuously (400 ms per point) for 2 s (baseline), then 140 mM I^- solution containing 200 μM ATP was added at 2 s and then YFP fluorescence was recorded for 6 s. Initial iodide influx rate was determined from the initial slope of fluorescence decrease, by nonlinear regression, following infusion of iodide with ATP.

Regarding `O=c1cc(-c2ccc(O)c(O)c2)oc2cc(O)cc(O)c12` [luteolin], the concentration for half-maximal inhibition (IC50) was approximately 120 µM.

As usually defined, the IC50 is the point on the concentration scale where inhibition reaches its midpoint.
